Where “and” joins values, the source holds several entries; their conditions need not be identical. Equal values may be shown once.
Assays:
[1] = compared with mineral salts, for example iron sulphate; cited from earlier work
[2] = system: reticulocytes of the anaemic patient; assay: Test 3: cytofluorometric analysis of reticulocytes in blood samples; assay type: in vivo; conditions: for RET_IMM: immature reticulocytes: limits 0.00-0.50; for RETH: reticulocytes with high RNA content, highly immature: limits 0.0-10.0; for RETM: reticulocytes with average RNA content, immature on average: limits 0.0-40.0; for IRF: Immature Reticulocyte Function: limits 0.000-999.000; for MRV: Mean Reticulocyte Volume: limits 0-9999; for CRC: Corrected Reticulocyte Count: limits 0.75-2.30; for MFI: Mean Fluorescence Intensity: limits 5.0-30.0; for RhC/C: reticulocyte haemoglobin content: limits 28.9-33.9; for RETL: reticulocytes without RNA, poorly immature (or mature): limits 65.0-97.0
Method: In order to be able to quantify the increase in reticulocytes, cytofluorometry analyses were conducted on samples of blood taken from the patient both before the treatment with iron bisglycinate chelate (Table 3) and after 20 days of treatment (Table 4).
The cytofluorometric analysis (fluorescence flow cytometry CFM) is conducted here as an assessment of the fluorescence obtained with the step of a laser beam of a sample of cells to be examined; in any case, further conventional techniques can be used for the purpose of the present invention.

[3] = system: patients before the hip arthroplasty operation; assay: Test 2: treatment for 10 days after taking 350 ml blood before hip arthroplasty, haematic parameters; assay type: in vivo; conditions: individual patients, 'Average' row = mean
Method: For about 10 days, before the hip arthroplasty operation, blood is usually taken from the patients (350 ml) so as to have available, if necessary, a quantity of blood that is sufficient for an autologous transfusion.
10 days after the blood is removed, the haematic parameters of the various patients are assessed, the intervention is performed and then the treatment with iron bisglycinate chelate continues for another 30 days after surgery.

[4] = different values of pH of the gastrointestinal tract; cited from earlier work
[5] = system: patients before the hip arthroplasty operation; assay: Test 2: treatment for 10 days after taking 350 ml blood before hip arthroplasty, haematic parameters; assay type: in vivo; conditions: administration of iron sulphate; data in the applicant's possession
[6] = system: patients who had to undergo surgery and who suffered from slight sideropenic anaemia; conditions: t=0, before treatment, individual patients, 'Average' = mean
Method: An experimental study was conducted on patients who had to undergo surgery and who suffered from slight sideropenic anaemia.
The aim of the treatment with iron salts was to restore and/or increase the haemoglobin level before surgery in such a manner as to minimise morbidity and/or mortality after surgery.
5 patients were treated with 2 effervescent tablets (prepared as in example 1) per day of iron bisglycinate chelate for 30 days, equal to 28 mg of iron ion per day and 5 patients were treated with one tablet per day of iron sulphate equal to 105 mg of iron ion.
Heavy bleeding surgery took place 10 days after the start of treatment with the iron derivative, i.e. both with the iron bisglycinate chelate and with iron sulphate and the treatment with said iron derivative continued for the 20 days following surgery.

[7] = t=20, after 20 days of treatment

NCC(=O)[O-].NCC(=O)[O-].[Fe+2] [Iron bisglycinate chelate]
bioavailability [1]: greater bioavailabilty than mineral salts
increase in the percentage of immature reticulocytes (RET_IMM) ([2]; after 20 days of treatment versus before the treatment): 75%
RET_IMM: immature reticulocytes ([2]; t=0, before treatment): 0.08%
RETH: reticulocytes with high RNA content, highly immature ([2]; t=0, before treatment): 1.8%
RETM: reticulocytes with average RNA content, immature on average ([2]; t=0, before treatment): 9.8%
IRF: Immature Reticulocyte Function ([2]; t=0, before treatment): 0.156
MRV: Mean Reticulocyte Volume ([2]; t=0, before treatment): 86 µm^3
CRC: Corrected Reticulocyte Count ([2]; t=0, before treatment): 1.56%
MFI: Mean Fluorescence Intensity ([2]; t=0, before treatment): 15.1%
RhC/C: reticulocyte haemoglobin content ([2]; t=0, before treatment): 28.1 pg
RETL: reticulocytes without RNA, poorly immature (or mature) ([2]; t=0, before treatment): 88.6%
RET_IMM: immature reticulocytes [2, 7]: 0.14%
RETH: reticulocytes with high RNA content, highly immature [2, 7]: 15.4%
RETM: reticulocytes with average RNA content, immature on average [2, 7]: 32.3%
IRF: Immature Reticulocyte Function [2, 7]: 0.534
MRV: Mean Reticulocyte Volume [2, 7]: 100 µm^3
CRC: Corrected Reticulocyte Count [2, 7]: 1.87%
MFI: Mean Fluorescence Intensity [2, 7]: 29.8%
RhC/C: reticulocyte haemoglobin content [2, 7]: 29.4 pg
RETL: reticulocytes without RNA, poorly immature (or mature) [2, 7]: 52.3%
Haemoglobin ([3]; t=0, start of treatment after taking 350 ml blood): 12.5 g/100ml and 13.2 g/100ml (2×) and 12.9 g/100ml (2×) and 13.3 g/100ml and 12.7 g/100ml
% Reticulocytes ([3]; t=0): 1.1% (3×) and 0.6% and 2.1% and 1.4% and 0.8%
Ferritin ([3]; t=0): 97 ng/mL and 132 ng/mL and 315 ng/mL and 146 ng/mL and 43 ng/mL and 53 ng/mL and 67 ng/mL
Sideraemia ([3]; t=0): 76 µg/100ml and 67 µg/100ml and 58 µg/100ml and 112 µg/100ml and 75 µg/100ml and 87 µg/100ml
% Reticulocytes ([3]; t=10days, 2 tablets a day): 1.5% and 0.9% and 16% and 23% and 1.2% and 25% and 1.7%
Ferritin ([3]; t=10days, 2 tablets a day): 103 ng/mL and 72 ng/mL and 237 ng/mL and 95 ng/mL and 25 ng/mL and 34 ng/mL and 67 ng/mL
Haemoglobin ([3]; t=10days, 2 tablets a day): 11.8 g/100ml (2×) and 12.7 g/100ml and 12.2 g/100ml and 12.8 g/100ml and 12.9 g/100ml and 12.1 g/100ml
Sideraemia ([3]; t=10days, 2 tablets a day): 58 µg/100ml and 120 µg/100ml and 80 µg/100ml and 62 µg/100ml and 65 µg/100ml and 84 µg/100ml and 69 µg/100ml
stability of the bond (hydrolysis) [4]: does not hydrolyse

O=S(=O)([O-])[O-].[Fe+2] [Iron sulphate, reference compound]
average reduction of the haemoglobin after taking 350 ml [5]: 1.5 g of Hb
Iron [6]: 110 µg/100ml and 85 µg/100ml
Haemoglobin ([6]; bisglycinate 28 mg iron ion/day, sulphate 105 mg iron ion/day): 12.5 g/100ml and 11.6 g/100ml
